Test results published in patent publication US20220017468A1, “ISOQUINOLINE COMPOUNDS AND THEIR USE IN TREATING AhR IMBALANCE” (Dermavant Sciences GmbH, priority 2020, published 2022).
pIC50: −log10 of the molar value. Several values for one entry are separate records, joined by “and”; a condition that tells them apart may be missing. Equal values may be shown once. Read-outs that look alike come from different tables or passages of the source.

Columns and labels:
IL17A mRNA = assay: sRICA ex vivo human skin explant, IL17A expression; assay type: cell-based; conditions: 10 μM, Th17 polarizing conditions
From the text: (§1) A liquid-air interface skin explant culture with the in situ activation of immunocompetent cells, termed sRICA for skin-Resident Immune Cell Activation model was previously reported (Smith et al., (2016) PLoS One, 11(2)). In this assay, specific cytokine profiles of inflammatory skin diseases can be induced, including the Th17-type cytokines, IL17A, IL17F and IL22. Reduction of biomarkers in this assay indicates biological activity of the test compound.
(§2) Ex vivo human skin obtained from abdominoplasty surgery was processed to remove fat and dermatomed the tissue to ˜750 microns. Dermatomed skin was then cleaned in two serial rinses of 5-10 minutes each in room temperature PBS containing an antibiotic/antimycotic solution.
(§3) Skin was treated as asceptic from this point on; all further manipulations were performed in a class II biosafety cabinet. […]
(§4) The harvested skin tissue were stored in RNAlater until use. […] RNA was diluted to a concentration of 23.6 ng/ul (total of 100 ng RNA), and was used as template in a 10 uL PCR volume using Applied Biosciences RNA-to-CT 1 Step kit (AB Catalog # 4392938) and the specific TaqMan probes foreach gene to be quantified. […]
(§5) RNA levels of gene of interest's Relative Expression was calculated using the Delta Delta CT formula.
(§6) RNA was isolated from the tissue harvested at 24 hr and 48 hr post stimulation and gene expression was assessed by quantitative PCR. […]

[1] = bioavailability after a single oral dose, minipig; assay type: in vivo; conditions: plasma, single 5 mg/kg oral dose, DMSO: Kolliphore HS15: hydroxypropyl-β-cyclodextrin (10:10:80)
From the text: (§7) Bioavailability was 46.5% and 41.0% for 30% Captisol and 30% Cavitron, respectively. 30% Captisol formulation was selected for the 7-day subcutaneous toxicity study in rat.

[2] = pharmacokinetics after a single intravenous dose, rat; assay type: in vivo; conditions: plasma, 1 mg/kg intravenous
From the text: as §7

Nrf2 = assay: luciferase-based reporter assay for NQO1 gene expression; assay type: cell-based
[3] = metabolic stability in liver microsomes, rabbit; assay type: in vitro ADME
[4] = system: human primary keratinocytes; assay: keratinocyte viability; assay type: cell-based; conditions: 48 h, two days
From the text: Points represent percent maximum expression of protein compared to Th17 from six combined donors; 3 biological replicates per treatment. Error bars represent standard error of mean. […] Data are mean±standard error from 3 to 9 experimental data points. […] Error bars represent mean ±standard error of 10-15 biological replicates.

[5] = metabolic stability in hepatocytes, mouse; assay type: in vitro ADME
[6] = metabolic stability in hepatocytes, dog; assay type: in vitro ADME
[7] = system: AhR pathway (CYP1A1 mRNA); assay: sRICA ex vivo human skin explant, CYP1A1 induction; assay type: cell-based; conditions: 1 μM or 10 μM in the baso-lateral media
From the text: as §1, §2, §3, §4, §5, §6

CB2 = target: T1, CB2 (Homo sapiens, UniProt P34972); assay: fluorescence-based agonist assay using genetically modified yeast; assay type: cell-based; conditions: read-out: CB2 pEC50 (converted)
T1 construct: expressed in transfected cells

[8] = pharmacokinetics after a single intravenous dose, minipig; assay type: in vivo; conditions: plasma, 1 mg/kg intravenous, mean
From the text: as §7

Minipig Plasma Proteins = assay: plasma protein binding by Rapid Equilibrium Dialysis, minipig; assay type: in vitro ADME
From the text: (§8) The blood-to-plasma ratios were similar across species (1.22-1.36, Table 9).

[9] = as above; assay type: in vitro ADME; conditions: minipig, plasma
From the text: as §8

[10] = oxygen radical absorbance capacity (ORAC) test; assay type: biochemical; conditions: Trolox Equivalent Values

T1 sequence (P34972 whole entry, species assumed): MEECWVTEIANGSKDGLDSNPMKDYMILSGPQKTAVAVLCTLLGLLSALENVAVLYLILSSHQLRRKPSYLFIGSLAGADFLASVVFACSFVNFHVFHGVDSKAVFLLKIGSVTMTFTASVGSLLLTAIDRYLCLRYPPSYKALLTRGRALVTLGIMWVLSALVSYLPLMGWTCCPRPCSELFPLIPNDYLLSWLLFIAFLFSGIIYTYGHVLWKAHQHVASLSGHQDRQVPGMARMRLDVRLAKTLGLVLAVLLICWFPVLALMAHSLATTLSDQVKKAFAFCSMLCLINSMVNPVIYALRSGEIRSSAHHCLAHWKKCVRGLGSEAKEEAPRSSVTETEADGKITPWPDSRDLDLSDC

CC(C)c1c(O)cc(-c2cc3ccccc3cn2)cc1O
inhibition of IL17A message expression (IL17A mRNA): ~45% | bioavailability [1]: 0.1% | AUC(0-inf) ([2]; mean n = 3): 95.7 ng·h/mL | half-life ([2]; mean n = 3): 41.4 min | clearance ([2]; mean n = 3, read-out: CLp): 175 mL/min/kg | Vd ([2]; mean n = 3, read-out: Vss): 6 L/kg | Nrf2 pEC50 (Nrf2): pEC50 = 7.0 | CLint, mic ([3]; rabbit liver microsomes, 0.5 μM): 11.9 mL/min/g liver | CLint scaled at 0.5 μM ([3]; rabbit liver microsomes, 0.5 μM, read-out: Scaled CLint, mic): 367 mL/min/kg | half-life at 0.5 μM ([3]; rabbit, microsomes): 6.1 min | pIC50 [4]: 4.91 | half-life at 0.5 μM [5]: 8.39 min | CLint, hep ([5]; 0.5 μM): 22.3 mL/min/g liver | CLint scaled at 0.5 μM ([5]; read-out: Scaled CLint, hep): 1140 mL/min/kg | half-life at 0.5 μM [6]: 31.9 min | CLint, hep ([6]; 0.5 μM): 7.39 mL/min/g liver | CLint scaled at 0.5 μM ([6]; read-out: Scaled CLint, hep): 240 mL/min/kg | AhR pathway activation as measured by cyp1a1 gene induction [7]: confirmed | EC50 (CB2): 0.2 µM | AUC(0-inf) [8]: 783 ng·h/mL | half-life [8]: 61.2 min | clearance ([8]; read-out: CLp): 21.3 mL/min/kg | Vd ([8]; read-out: Vss): 1.5 L/kg | recovery at 4 h, 2 μM (Minipig Plasma Proteins): 95.6% | % Unbound Replicate (Minipig Plasma Proteins; 2 μM): 2.52% and 1.57% | Mean % Stability at 4 hrs (Minipig Plasma Proteins; 2 μM): 107% | fraction unbound at 4 h, 2 μM ([9]; read-out: % Unbound Mean (% CV)): 0.0198 | fraction unbound at 4 h, 2 μM ([9]; read-out: % Unbound Replicate): 0.0187 | fraction unbound at 4 h, 2 μM ([9]; read-out: Mean % Bound (converted)): 0.02 | Hydroxyl-radical [10]: 759 TEV | Peroxyl radical-hydro [10]: 3267 TEV | Peroxyl radical-lipo [10]: 1397 TEV | Peroxynitrite [10]: 100 TEV | Singlet oxygen [10]: 2914 TEV | Total ORAC value [10]: 8437 TEV
